Measurements reported in ChEMBL document CHEMBL2390923, “Synthesis of 7-oxabicyclo[2.2.1]hept-5-en-2-yl derivatives and their screening for antimicrobial and antioxidant properties” (2013).
Converted amounts (≈) assume the structure as drawn.

Columns and labels:
Assay type in all cases: functional
Escherichia coli [1] = experiment: Antibacterial activity against Escherichia coli at 100 mg/ml after 24 hrs by well diffusion assay; settings: read-out: DIZ
Vibrio cholerae [2] = experiment: Antibacterial activity against Vibrio cholerae after 18 to 24 hrs by microdilution broth assay
Staphylococcus aureus [3] = experiment: Antibacterial activity against Staphylococcus aureus at 150 mg/ml after 24 hrs by well diffusion assay; settings: read-out: DIZ
Klebsiella pneumoniae [4] = experiment: Antibacterial activity against Klebsiella pneumoniae after 18 to 24 hrs by microdilution broth assay
Escherichia coli [5] = experiment: Antibacterial activity against Escherichia coli after 18 to 24 hrs by microdilution broth assay
Staphylococcus aureus [6] = experiment: Antibacterial activity against Staphylococcus aureus at 125 mg/ml after 24 hrs by well diffusion assay; settings: read-out: DIZ
Staphylococcus aureus [7] = experiment: Antibacterial activity against Staphylococcus aureus after 18 to 24 hrs by microdilution broth assay
Escherichia coli [8] = experiment: Antibacterial activity against Escherichia coli at 125 mg/ml after 24 hrs by well diffusion assay; settings: read-out: DIZ
Bacillus subtilis [9] = experiment: Antibacterial activity against Bacillus subtilis after 18 to 24 hrs by microdilution broth assay
[10] = tested on: Radical scavenging activity; experiment: Antioxidant activity assessed as DPPH radical scavenging activity after 30 mins; design: concentration or dose not given beside the values
Klebsiella pneumoniae [11] = experiment: Antibacterial activity against Klebsiella pneumoniae at 150 mg/ml after 24 hrs by well diffusion assay; settings: read-out: DIZ
Escherichia coli [12] = experiment: Antibacterial activity against Escherichia coli at 150 mg/ml after 24 hrs by well diffusion assay; settings: read-out: DIZ
Staphylococcus aureus [13] = experiment: Antibacterial activity against Staphylococcus aureus at 100 mg/ml after 24 hrs by well diffusion assay; settings: read-out: DIZ
Klebsiella pneumoniae [14] = experiment: Antibacterial activity against Klebsiella pneumoniae at 125 mg/ml after 24 hrs by well diffusion assay; settings: read-out: DIZ
Vibrio cholerae [15] = experiment: Antibacterial activity against Vibrio cholerae at 125 mg/ml after 24 hrs by well diffusion assay; settings: read-out: DIZ
Vibrio cholerae [16] = experiment: Antibacterial activity against Vibrio cholerae at 100 mg/ml after 24 hrs by well diffusion assay; settings: read-out: DIZ
Vibrio cholerae [17] = experiment: Antibacterial activity against Vibrio cholerae at 150 mg/ml after 24 hrs by well diffusion assay; settings: read-out: DIZ
Bacillus subtilis [18] = experiment: Antibacterial activity against Bacillus subtilis at 150 mg/ml after 24 hrs by well diffusion assay; settings: read-out: DIZ
Bacillus subtilis [19] = experiment: Antibacterial activity against Bacillus subtilis at 125 mg/ml after 24 hrs by well diffusion assay; settings: read-out: DIZ
Bacillus subtilis [20] = experiment: Antibacterial activity against Bacillus subtilis at 100 mg/ml after 24 hrs by well diffusion assay; settings: read-out: DIZ
Klebsiella pneumoniae [21] = experiment: Antibacterial activity against Klebsiella pneumoniae at 100 mg/ml after 24 hrs by well diffusion assay; settings: read-out: DIZ

Compound | zone of inhibition at 100000 µg/mL (Escherichia coli [1]) [mm] | MIC (Vibrio cholerae [2]) [µg/mL] | zone of inhibition at 150000 µg/mL (Staphylococcus aureus [3]) [mm] | MIC (Klebsiella pneumoniae [4]) [µg/mL] | MIC (Escherichia coli [5]) [µg/mL] | zone of inhibition at 125000 µg/mL (Staphylococcus aureus [6]) [mm] | MIC (Staphylococcus aureus [7]) [µg/mL] | zone of inhibition at 125000 µg/mL (Escherichia coli [8]) [mm] | MIC (Bacillus subtilis [9]) [µg/mL] | inhibition [10] [%] | zone of inhibition at 150000 µg/mL (Klebsiella pneumoniae [11]) [mm] | zone of inhibition at 150000 µg/mL (Escherichia coli [12]) [mm] | zone of inhibition at 100000 µg/mL (Staphylococcus aureus [13]) [mm] | zone of inhibition at 125000 µg/mL (Klebsiella pneumoniae [14]) [mm] | zone of inhibition at 125000 µg/mL (Vibrio cholerae [15]) [mm] | zone of inhibition at 150000 µg/mL (Vibrio cholerae [17]) [mm] | zone of inhibition at 150000 µg/mL (Bacillus subtilis [18]) [mm] | zone of inhibition at 125000 µg/mL (Bacillus subtilis [19]) [mm] | zone of inhibition at 100000 µg/mL (Bacillus subtilis [20]) [mm] | zone of inhibition at 100000 µg/mL (Klebsiella pneumoniae [21]) [mm] | other results
CCC12C=CC(O1)C(C(=O)c1ccccc1)C2c1ccc(F)cc1 (stereo not drawn) | 10 | 625 (≈ 1940 µM) | 15 | 625 (≈ 1940 µM) | 625 (≈ 1940 µM) | 13 | 1250 (≈ 3880 µM) | 11 | 625 (≈ 1940 µM) | 42.4 | 12 | 13 | – | – | – | – | – | – | – | – | –
CCC12C=CC(O1)C(C(=O)c1ccccc1)C2c1ccccc1Br (stereo not drawn) | 11 | 625 (≈ 1630 µM) | 16 | 625 (≈ 1630 µM) | 1250 (≈ 3260 µM) | 14 | 1250 (≈ 3260 µM) | 14 | 1250 (≈ 3260 µM) | 17.7 | 11 | 15 | 13 | – | – | – | – | – | – | – | –
CCC12C=CC(O1)C(C(=O)c1ccccc1)C2c1cccc(OC)c1 (stereo not drawn) | 13 | 625 (≈ 1870 µM) | 17 | 312 (≈ 933 µM) | 625 (≈ 1870 µM) | 15 | 625 (≈ 1870 µM) | 15 | 625 (≈ 1870 µM) | 33.4 | 13 | 16 | – | 12 | – | – | – | – | – | – | –
CCC12C=CC(O1)C(C(=O)c1ccccc1)C2c1ccc(OC)cc1 (stereo not drawn) | – | 625 (≈ 1870 µM) | 13 | 625 (≈ 1870 µM) | 625 (≈ 1870 µM) | 11 | 1250 (≈ 3740 µM) | – | 625 (≈ 1870 µM) | 15.1 | – | – | – | – | 14 | 17 | – | – | – | – | zone of inhibition at 100000 µg/mL (Vibrio cholerae [16]): 12 mm
CCC12C=CC(O1)C(C(=O)c1ccccc1)C2c1ccc([N+](=O)[O-])cc1 (stereo not drawn) | 12 | 1250 (≈ 3580 µM) | 13 | 625 (≈ 1790 µM) | 1250 (≈ 3580 µM) | – | 1250 (≈ 3580 µM) | 14 | 1250 (≈ 3580 µM) | 21.6 | – | 14 | – | – | – | – | – | – | – | – | –
CCC12C=CC(O1)C(C(=O)c1ccccc1)C2c1cccc(Br)c1 (stereo not drawn) | – | 625 (≈ 1630 µM) | 15 | 156 (≈ 407 µM) | 312 (≈ 814 µM) | 12 | 31 (≈ 80.9 µM) | 12 | 312 (≈ 814 µM) | 23.2 | 14 | 15 | 11 | 12 | – | 11 | 17 | 14 | 11 | – | –
CCC12C=CC(O1)C(C(=O)c1ccccc1)C2c1ccccc1Cl (stereo not drawn) | 13 | 625 (≈ 1840 µM) | 16 | 625 (≈ 1840 µM) | 1250 (≈ 3690 µM) | 15 | 1250 (≈ 3690 µM) | 14 | 1250 (≈ 3690 µM) | 22.2 | 12 | 16 | 12 | 11 | 12 | 14 | 13 | 12 | 10 | 9 | zone of inhibition at 100000 µg/mL (Vibrio cholerae [16]): 11 mm
CCC12C=CC(O1)C(C(=O)c1ccccc1)C2c1ccc(C#N)cc1 (stereo not drawn) | 11 | 1250 (≈ 3790 µM) | 13 | 156 (≈ 474 µM) | 156 (≈ 474 µM) | 11 | 156 (≈ 474 µM) | 15 | 156 (≈ 474 µM) | 58.9 | 15 | 16 | – | 13 | – | – | 15 | 13 | 11 | 10 | –
Cc1cc(C(C)(C)C)c(O)c(C(C)(C)C)c1 | – | – | – | – | – | – | – | – | – | 58.4 | – | – | – | – | – | – | – | – | – | – | –
CCC12C=CC(O1)C(C(=O)c1ccccc1)C2c1ccccc1F (stereo not drawn) | – | 625 (≈ 1940 µM) | 16 | 625 (≈ 1940 µM) | 1250 (≈ 3880 µM) | 15 | 1250 (≈ 3880 µM) | – | 1250 (≈ 3880 µM) | 18.1 | 14 | 12 | 13 | 13 | – | – | – | – | – | 10 | –
CCC12C=CC(O1)C(C(=O)c1ccccc1)C2c1cccc(F)c1 (stereo not drawn) | – | 625 (≈ 1940 µM) | 16 | 312 (≈ 968 µM) | 1250 (≈ 3880 µM) | 14 | 625 (≈ 1940 µM) | 11 | 1250 (≈ 3880 µM) | 22.3 | 12 | 12 | 11 | 11 | 14 | 15 | 12 | – | – | – | zone of inhibition at 100000 µg/mL (Vibrio cholerae [16]): 12 mm
CCC12C=CC(O1)C(C(=O)c1ccc(Br)cc1)C2c1ccccc1 (stereo not drawn) | 12 | 312 (≈ 814 µM) | 17 | 78 (≈ 204 µM) | 78 (≈ 204 µM) | 13 | 1250 (≈ 3260 µM) | 16 | 78 (≈ 204 µM) | 32.6 | 16 | 17 | 11 | 14 | 10 | 11 | 17 | 14 | 12 | 11 | –
CCC12C=CC(O1)C(C(=O)c1cccc(Br)c1)C2c1ccccc1 (stereo not drawn) | – | 625 (≈ 1630 µM) | – | 312 (≈ 814 µM) | 625 (≈ 1630 µM) | – | 625 (≈ 1630 µM) | 12 | 625 (≈ 1630 µM) | 36 | – | 14 | – | – | – | 12 | – | – | – | – | –
CCC12C=CC(O1)C(C(=O)c1ccccc1)C2c1ccc(Br)cc1 (stereo not drawn) | – | 625 (≈ 1630 µM) | 14 | 156 (≈ 407 µM) | 312 (≈ 814 µM) | 13 | 156 (≈ 407 µM) | 14 | 312 (≈ 814 µM) | 30.5 | 12 | 18 | 11 | 11 | 11 | 12 | 12 | – | – | – | –
CCC12C=CC(O1)C(C(=O)c1ccccc1)C2c1ccc(Cl)cc1 (stereo not drawn) | – | 625 (≈ 1840 µM) | 13 | 156 (≈ 460 µM) | 312 (≈ 921 µM) | – | 625 (≈ 1840 µM) | – | 322 (≈ 950 µM) | 35.5 | 15 | – | – | 11 | 13 | 14 | – | – | – | – | zone of inhibition at 100000 µg/mL (Vibrio cholerae [16]): 11 mm
CCC12C=CC(O1)C(C(=O)c1ccccc1)C2c1ccccc1 (stereo not drawn) | – | 1250 (≈ 4110 µM) | – | 4 (≈ 13.1 µM) | 312 (≈ 1030 µM) | – | 625 (≈ 2050 µM) | 14 | 312 (≈ 1030 µM) | 58.9 | 19 | 15 | – | 16 | – | – | 18 | 16 | 12 | 13 | –
O=C(O)c1cn(C2CC2)c2cc(N3CCNCC3)c(F)cc2c1=O [CIPROFLOXACIN] | – | 15 (≈ 45.3 µM) | 16 | 7 (≈ 21.1 µM) | 62 (≈ 187 µM) | 16 | 15 (≈ 45.3 µM) | – | 125 (≈ 377 µM) | – | 23 | – | 16 | 23 | 16 | 16 | 18 | 18 | 18 | 23 | zone of inhibition at 100000 µg/mL (Vibrio cholerae [16]): 16 mm
